# Values quoted from earlier work, collected in US20030232417A1, “Process” (priority 2001, published 2003).
# System: fungi
# Conditions: limited number of fungi tested
smiles,measurement,value
"O=C1C=CCOC1(O)CO (stereo not shown) [microthecin, 2-hydroxy-2-(hydroxymethyl)-2H-pyran-3(6H)-one]",antifungal activity,antifungal against a limited number of fungi tested
